# Reference: US4132778A, “Antibiotic A-32887” (Eli Lilly and Company, priority 1977, dated 1979)
# Columns and labels:
# [1] = test system: Pasteurella multocida (bovine); assay: Standard agar-dilution assay (MIC), Table VI; type: cell-based; settings: Na-K salt
# Description: Antibiotic A-32887 inhibits the growth of pathogenic bacteria, especially gram-positive bacteria. Table VI summarizes the minimal inhibitory concentrations (MIC), as measured by standard agar-dilution assays, at which A-32887 (Na-K salt) inhibits certain bacteria.
# [2] = test system: Diplococcus pneumoniae; assay: Conventional disc-diffusion method, Table VII; type: cell-based
# Description: (§1) The activity of A-32887 (Na-K salt) against illustrative bacteria, as measured by the conventional disc-diffusion method, is summarized in Table VI.
# [3] = test system: Staphylococcus aureus 3055; assay: Conventional disc-diffusion method, Table VII; type: cell-based
# Description: as §1
# [4] = test system: Streptococcus pyogenes (Group A); assay: Conventional disc-diffusion method, Table VII; type: cell-based
# Description: as §1
# [5] = test system: Streptococcus sp. (Group D); assay: Conventional disc-diffusion method, Table VII; type: cell-based
# Description: as §1
# [6] = test system: Staphylococcus aureus 3074 (Penicillin G-resistant); assay: Conventional disc-diffusion method, Table VII; type: cell-based
# Description: as §1
# *Penicillin G-resistant
# [7] = test system: Staphylococcus aureus 3130 (Methicillin-resistant); assay: Conventional disc-diffusion method, Table VII; type: cell-based
# Description: as §1
# **Methicillin-resistant
# [8] = test system: Eubacterium aerofaciens; assay: Standard agar-dilution assay, anaerobic bacteria, Table IX; type: cell-based; settings: 24-hour incubation
# [9] = test system: Propionibacterium acnes; assay: as above; type: cell-based; settings: 24-hour incubation
# [10] = test system: Bacteriodes fragilis ssp fragilis 1877; assay: as above; type: cell-based; settings: 24-hour incubation
# [11] = test system: Bacteriodes fragilis ssp thetaiotaomicron; assay: as above; type: cell-based; settings: 24-hour incubation
# [12] = test system: Bacteriodes melaninogenicus 2736; assay: as above; type: cell-based; settings: 24-hour incubation
# [13] = test system: Fusobacterium symbiosum; assay: as above; type: cell-based; settings: 24-hour incubation
# [14] = test system: Fusobacterium necrophorum; assay: as above; type: cell-based; settings: 24-hour incubation
# [15] = test system: E. tenella AND E. acervulina; assay: Anticoccidial feeding test in chicks, E. tenella and E. acervulina (Table XII); type: in vivo; set-up: Average Lesion Score, Intestinal / Average Lesion Score, Cecal: scale not given here; settings: for Percent Mortality: due to coccidiosis; for Percent Weight Gain: normal controls = 100%
# Description: ^1 6 replicates; 5 birds each
# ^2 Infection inoculum 48 hours post-medication onset
# [16] = test system: rumen flora; assay: Rumen volatile-fatty-acid (VFA) production test in flasks (Table XIV); settings: 1 mcg/ml
# [17] = test system: ruminal propionate concentration; assay: Ruminal VFA in fistulated feed-lot cattle (Table XV); type: in vivo; settings: 30 g/ton, 24 days
# Description: The procedure used in testing cattle in this manner is also described in Raun's U.S. Pat. No. 3,839,557 (see Example 9). Table XV summarizes the results of such a test with A-32887 (Na-K salt) wherein five feed-lot cattle weighing approximately 425 kg. were in each group and the mean percent increases in ruminal propionate concentration were averaged over four analyses in a 24-day treatment period.
# [18] = test system: acute swine dysentery; assay: Swine dysentery test in infected pigs (Table XVII); type: in vivo; settings: 100 g/ton in feed
# Description: In another aspect the A-32887 compounds are useful in the prevention and control of swine dysentery. A preferred method of administration to swine is by incorporation of an appropriate amount of an A-32887 compound into the feed ration. […] In this test, groups of four pigs were challenged orally with 5.0 ml of a colon-content/tissue suspension prepared from pigs suffering from acute swine dysentery. Treated pigs were challenged 24 hours after initiating feed treatment. The test was carried out over a period of 26 days, observing pigs daily, and weighing them weekly and on day 26.
# *Fecal material for each group was rated daily with 0= normal, 1= slight
# blood or mucus, 2= moderate blood or mucus, 3= marked blood or mucus.
# Index is the total score per treatment for 25 days.
# [19] = test system: powdery mildew disease in bean plants; assay: Plant disease test, spray; type: in vivo; settings: 400 ppm as a spray
# Description: The A-32887 compounds are also useful in the treatment of certain plant diseases.
# [20] = test system: ATPase; assay: In vitro ATPase inhibition test using NaCl; type: biochemical
# Description: In yet another aspect, the A-32887 compounds are active as inhibitors of the enzyme ATPase. ATPase, an alkali-metal-sensitive enzyme found in cell membranes, is involved in the energy necessary for active transport. "Active transport" refers to the energy-requiring series of operations whereby intracellular and extracellular fluids maintain their compositions. Inhibitors of ATPase reduce the energy required for active transport.
# [21] = test system: guinea pig left atria; assay: Cardiac contractility in guinea pig left atria; settings: 10^-5 molar
# Description: The A-32887 compounds are potential cardiotonic agents. In tests using guinea pig left atria, A-32887 (Na-K salt) increased cardiac contractility. Response to this test is expressed as a percentage of the maximal force that could be elicited by a challenge dose of norepinephrine. A-32887 (Na-K salt), at a 10^-5 molar concentration, increased cardiac contractility by 28.0 ± 7.1 percent.
# [22] = test system: E. tenella, E. maxima and E. acervulina; assay: Anticoccidial feeding test in chicks, E. tenella, E. maxima and E. acervulina (Table XIII); settings: for Percent Mortality: due to coccidiosis; for Percent Weight Gain: per survivor
compound,measurement,setting,value
CO[C@H]1CC[C@H](OC2[C@@H](C)[C@@](C)(O)O[C@H]([C@H]3CC[C@H]([C@@H]4CC[C@H]([C@@]5(C)O[C@]6(O[C@H](C[C@@H]7O[C@](O)([C@@H](O)C(=O)O)[C@@H](C)[C@H](OC)[C@@]7(C)OC)C[C@@H](OC)[C@H]6C)[C@H](C)[C@H]5OC)O4)O3)[C@H]2C)O[C@@H]1C.[K+].[Na+] (some centres unmarked) [A-32887 (Na-K salt)],MIC,[1],50.00 µg/mL
same,Zone of Inhibition,[2]; 30 mcg/disc,16.0 mm
same,Zone of Inhibition,[2]; 300 mcg/disc,18.0 mm
same,Zone of Inhibition,[3]; 30 mcg/disc,12.0 mm
same,Zone of Inhibition,[3]; 300 mcg/disc,15.6 mm
same,Zone of Inhibition,[4]; 30 mcg/disc,14.0 mm
same,Zone of Inhibition,[4]; 300 mcg/disc,17.5 mm
same,Zone of Inhibition,[5]; 30 mcg/disc,13.7 mm
same,Zone of Inhibition,[5]; 300 mcg/disc,14.7 mm
same,Zone of Inhibition,[6]; 30 mcg/disc,12.7 mm
same,Zone of Inhibition,[6]; 300 mcg/disc,16.0 mm
same,Zone of Inhibition,[7]; 30 mcg/disc,15.0 mm
same,Zone of Inhibition,[7]; 300 mcg/disc,15.2 mm
same,MIC,[8],≤ 0.5 µg/mL
same,MIC,[9],≤ 0.5 µg/mL
same,MIC,[10],2 µg/mL
same,MIC,[11],2 µg/mL
same,MIC,[12],2 µg/mL
same,MIC,[13],32 µg/mL
same,MIC,[14],32 µg/mL
same,"Average Lesion Score, Cecal",[15]; 62 ppm,0.1
same,"Average Lesion Score, Intestinal",[15]; 62 ppm,0.9
same,Percent Mortality,[15]; 62 ppm,0%
same,Percent Weight Gain,[15]; 62 ppm,97%
same,"Average Lesion Score, Cecal",[15]; 77 ppm,0
same,"Average Lesion Score, Intestinal",[15]; 77 ppm,0.7
same,Percent Mortality,[15]; 77 ppm,0%
same,Percent Weight Gain,[15]; 77 ppm,90%
same,"Average Lesion Score, Cecal",[15]; 100 ppm,0.1
same,"Average Lesion Score, Intestinal",[15]; 100 ppm,0.6
same,Percent Mortality,[15]; 100 ppm,0%
same,Percent Weight Gain,[15]; 100 ppm,85%
same,"Average Lesion Score, Cecal",[15]; 121 ppm,0
same,"Average Lesion Score, Intestinal",[15]; 121 ppm,0.3
same,Percent Mortality,[15]; 121 ppm,0%
same,Percent Weight Gain,[15]; 121 ppm,73%
same,"Ratio of Treated to Control, Molar % Acetate",[16],0.5744
same,"Ratio of Treated to Control, Molar % Butyrate",[16],1.1116
same,"Ratio of Treated to Control, Total VFA mM/l.",[16],0.7498
same,"Ratio of Treated to Control, Molar % Propionate",[16]; *P<0.01,1.4191
same,Molar % Butyrate,[17],9.6 Molar %
same,Total VFA,[17],79.6 mM/l.
same,No. Died per No. in Group,[18],0/4
same,No. with Colon Lesions/No. in Group,[18],2/4
same,Diarrhea Index,[18]; total score per treatment for 25 days,22
same,inhibition of powdery mildew disease,[19],inhibits powdery mildew disease
same,ATPase inhibition,[20],shown to inhibit ATPase
same,increase of cardiac contractility (percentage of maximal force elicited by norepinephrine),[21],28.0 ± 7.1%
same,"Average Lesion Score, Cecal",[22]; 25 ppm,3.9
same,"Average Lesion Score, Intestinal",[22]; 25 ppm,1.1
same,Percent Mortality,[22]; 25 ppm,35%
same,Percent Weight Gain,[22]; 25 ppm,57%
same,"Average Lesion Score, Cecal",[22]; 50 ppm,3.8
same,"Average Lesion Score, Intestinal",[22]; 50 ppm,1.8
same,Percent Mortality,[22]; 50 ppm,0%
same,Percent Weight Gain,[22]; 50 ppm,79%
same,"Average Lesion Score, Cecal",[22]; 75 ppm,2.0
same,"Average Lesion Score, Intestinal",[22]; 75 ppm,0.9
same,Percent Mortality,[22]; 75 ppm,0%
same,Percent Weight Gain,[22]; 75 ppm,90%
same,"Average Lesion Score, Cecal",[22]; 100 ppm,0.1
same,"Average Lesion Score, Intestinal",[22]; 100 ppm,0
same,Percent Mortality,[22]; 100 ppm,0%
same,Feed/Gain,"[22]; 100 ppm, pens without deaths only",1.50
same,Percent Weight Gain,[22]; 100 ppm,93%
